Results as given in ChEMBL document CHEMBL3044879, “Design, synthesis, and preliminary in vitro and in vivo pharmacological evaluation of 4-{4-[2-(4-(2-substitutedquinoxalin-3-yl)piperazin-1-yl)ethyl]phenyl}thiazoles as atypical antipsychotic agents” (Med Chem Res, 2013).
Calls of active or inactive are those of the source. The rule behind the calls is not given here.

Key:
[1] = tested on: Mus musculus; experiment: Antagonist activity at mesolimbic dopaminergic D2 receptor in Swiss albino Mus musculus (mouse) assessed as inhibition of apomorphine-induced cage climbing behavior at 10 mg/kg, ip administered 1 hr prior to apomorphine challenge measured after 20 min relative to vehicle-treated control; assay type: functional; details: route intraperitoneal
[2] = biological target: 5-hydroxytryptamine receptor 2A (Rattus norvegicus) (UniProt P14842); experiment: Displacement of [3H]ketanserin from 5-HT2A receptor in Rattus norvegicus (rat) cortex membrane homogenates up to 1 uM after 90 min by liquid scintillation counting analysis
[3] = tested on: Mus musculus; experiment: In vivo inhibition of dopaminergic D2 receptor in Swiss albino Mus musculus (mouse) at 10 mg/kg, ip relative to vehicle-treated control; assay type: functional; details: route intraperitoneal
[4] = biological target: D(2) dopamine receptor (Rattus norvegicus) (UniProt P61169); experiment: Displacement of [3H]spiperone from dopaminergic D2 receptor in Rattus norvegicus (rat) straitum membrane homogenates up to 1 uM after 60 min by liquid scintillation counting analysis
[5] = tested on: Mus musculus; experiment: In vivo inhibition of 5-HT2A receptor in Swiss albino Mus musculus (mouse) at 10 mg/kg, ip relative to vehicle-treated control; assay type: functional; details: route intraperitoneal
[6] = tested on: Mus musculus; experiment: Antagonist activity at mesolimbic dopaminergic D2 receptor in Swiss albino Mus musculus (mouse) assessed as inhibition of apomorphine-induced cage climbing behavior at 10 mg/kg, ip administered 1 hr prior to apomorphine challenge measured after 10 min relative to vehicle-treated control; assay type: functional; details: route intraperitoneal
[7] = tested on: Mus musculus; experiment: Selectivity ratio of inhibition of 5-HT2A receptor in Swiss albino Mus musculus (mouse) to inhibition of dopaminergic D2 receptor in Swiss albino Mus musculus (mouse) at 10 mg/kg, ip; assay type: functional; details: route intraperitoneal
[8] = tested on: Mus musculus; experiment: Antagonist activity at mesolimbic dopaminergic D2 receptor in Swiss albino Mus musculus (mouse) assessed as inhibition of apomorphine-induced cage climbing behavior at 10 mg/kg, ip administered 1 hr prior to apomorphine challenge measured after 30 min relative to vehicle-treated control; assay type: functional; details: route intraperitoneal
[9] = tested on: Mus musculus; experiment: Antagonist activity at central serotonergic 5-HT2A receptor in Swiss albino Mus musculus (mouse) assessed as inhibition of quipazine meleate-induced head twiches at 10 mg/kg, ip administered 1 hr prior to quipazine meleate challenge measured after 30 to 40 min relative to vehicle-treated control; assay type: functional; details: route intraperitoneal
[10] = tested on: Mus musculus; experiment: Antagonist activity at nigrostriatal dopaminergic D2 receptor in Swiss albino Mus musculus (mouse) assessed as maximum average cataleptic time at 10 mg/kg, ip after 1 to 5 hr relative to vehicle-treated control; assay type: organism-based; set-up: dose 10 mg/kg, route intraperitoneal; details: in vivo
[11] = biological target: 5-hydroxytryptamine receptor 2A (Rattus norvegicus) (UniProt P14842); experiment: Displacement of [3H]ketanserin from 5-HT2A receptor in Rattus norvegicus (rat) cortex membrane homogenates at 10 uM after 90 min by liquid scintillation counting analysis
[12] = biological target: D(2) dopamine receptor (Rattus norvegicus) (UniProt P61169); experiment: Displacement of [3H]spiperone from D2 receptor in Rattus norvegicus (rat) straitum membrane homogenates at 100 uM after 60 min by liquid scintillation counting analysis
[13] = biological target: D(2) dopamine receptor (Rattus norvegicus) (UniProt P61169); experiment: Displacement of [3H]spiperone from D2 receptor in Rattus norvegicus (rat) straitum membrane homogenates at 10 uM after 60 min by liquid scintillation counting analysis

Chain of D(2) dopamine receptor (Rattus norvegicus) (P61169 whole entry): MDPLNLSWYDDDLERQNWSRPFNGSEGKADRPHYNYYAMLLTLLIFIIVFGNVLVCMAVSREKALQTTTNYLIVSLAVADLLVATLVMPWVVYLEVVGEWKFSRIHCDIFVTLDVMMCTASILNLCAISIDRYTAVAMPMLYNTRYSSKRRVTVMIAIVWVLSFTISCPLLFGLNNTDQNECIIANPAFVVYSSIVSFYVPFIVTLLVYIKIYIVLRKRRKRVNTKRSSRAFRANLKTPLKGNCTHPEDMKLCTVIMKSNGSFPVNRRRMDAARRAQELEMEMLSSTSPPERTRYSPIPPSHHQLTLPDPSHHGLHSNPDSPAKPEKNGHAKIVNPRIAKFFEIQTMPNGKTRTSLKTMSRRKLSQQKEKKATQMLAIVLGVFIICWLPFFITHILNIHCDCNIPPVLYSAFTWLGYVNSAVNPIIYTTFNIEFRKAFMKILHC
Chain of 5-hydroxytryptamine receptor 2A (Rattus norvegicus) (P14842 whole entry): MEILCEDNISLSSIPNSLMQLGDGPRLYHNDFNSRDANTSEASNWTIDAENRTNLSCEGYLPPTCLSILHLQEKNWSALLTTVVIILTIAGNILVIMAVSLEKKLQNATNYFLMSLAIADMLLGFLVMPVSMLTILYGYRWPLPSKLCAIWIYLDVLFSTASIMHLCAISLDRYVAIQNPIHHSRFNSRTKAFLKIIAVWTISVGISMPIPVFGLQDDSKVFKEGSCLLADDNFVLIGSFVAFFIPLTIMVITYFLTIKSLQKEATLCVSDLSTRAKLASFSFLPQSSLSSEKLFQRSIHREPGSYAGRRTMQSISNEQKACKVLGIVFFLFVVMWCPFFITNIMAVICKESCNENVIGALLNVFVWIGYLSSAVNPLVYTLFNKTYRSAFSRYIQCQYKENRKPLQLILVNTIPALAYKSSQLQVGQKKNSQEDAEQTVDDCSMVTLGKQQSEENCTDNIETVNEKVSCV

Row | Compound | inhibition [2] | inhibition [4] | inhibition [11] | inhibition [12] | inhibition [13] | inhibition in vivo at 10 mg/kg [1] | Imax [3] | inhibition in vivo at 10 mg/kg [5] | inhibition in vivo at 10 mg/kg [6] | Selectivity ratio [7] | inhibition in vivo at 10 mg/kg [8] | inhibition in vivo at 10 mg/kg [9] | Time [10]
1 | Oc1nc(-c2ccc(CCN3CCN(c4cnc5ccccc5n4)CC3)cc2)cs1 | inactive | inactive | 22% | 0% | – | 65% | 65% | 80% | 60% | 1.231 | 65% | 80% | 3.19 s
2 | COc1nc2ccccc2nc1N1CCN(CCc2ccc(-c3csc(O)n3)cc2)CC1 | inactive | inactive | 28% | 0% | – | 60% | 65% | 67% | 65% | 1.031 | 60% | 67% | 7.9 s
3 | CNc1nc(-c2ccc(CCN3CCN(c4nc5ccccc5nc4OC)CC3)cc2)cs1 | inactive | inactive | 58% | 40% | inactive | 85% | 85% | 51% | 60% | 0.6 | 65% | 51% | 10.67 s
4 | CNc1nc(-c2ccc(CCN3CCN(c4cnc5ccccc5n4)CC3)cc2)cs1 | inactive | inactive | 57% | 0% | – | 50% | 60% | 36% | 25% | 0.6 | 60% | 36% | 9.32 s
5 | CNc1nc(-c2ccc(CCN3CCN(c4nc5ccccc5nc4OC)CC3)cc2)c(C)s1 | inactive | inactive | – | – | – | 50% | 70% | 80% | 60% | 1.143 | 70% | 80% | 3.12 s
6 | Nc1nc(-c2ccc(CCN3CCN(c4cnc5ccccc5n4)CC3)cc2)cs1 | inactive | inactive | 51% | 26% | inactive | 75% | 75% | 15% | 60% | 0.2 | 65% | 15% | 9.21 s
7 | CNc1nc(-c2ccc(CCN3CCN(c4cnc5ccccc5n4)CC3)cc2)c(C)s1 | inactive | inactive | – | – | – | 75% | 75% | 55% | 60% | 0.7333 | 65% | 55% | 3.88 s
8 | CNc1nc(-c2ccc(CCN3CCN(c4nc5ccccc5nc4Cl)CC3)cc2)cs1 | inactive | inactive | 14% | 0% | – | 80% | 80% | 41% | 60% | 0.5125 | 80% | 41% | 3.96 s
9 | Cc1nc(-c2ccc(CCN3CCN(c4cnc5ccccc5n4)CC3)cc2)c(C)s1 | inactive | inactive | – | – | – | 50% | 70% | 32% | 25% | 0.4571 | 70% | 32% | 9.32 s

Second part, led by results:

Row | inhibition [2] | inhibition [4] | inhibition [11] | inhibition [12] | inhibition [13] | Compound | inhibition in vivo at 10 mg/kg [1] | Imax [3] | inhibition in vivo at 10 mg/kg [5] | inhibition in vivo at 10 mg/kg [6] | Selectivity ratio [7] | inhibition in vivo at 10 mg/kg [8] | inhibition in vivo at 10 mg/kg [9] | Time [10]
10 | inactive | inactive | – | – | – | COc1nc2ccccc2nc1N1CCN(CCc2ccc(-c3nc(C)sc3C)cc2)CC1 | 70% | 85% | 65% | 85% | 0.7647 | 65% | 65% | 11.25 s
11 | inactive | inactive | 0% | 0% | – | Oc1nc(-c2ccc(CCN3CCN(c4nc5ccccc5nc4Cl)CC3)cc2)cs1 | 60% | 60% | 58% | 60% | 0.9667 | 50% | 58% | 28.25 s
12 | inactive | inactive | 0% | 0% | – | Cc1sc(N)nc1-c1ccc(CCN2CCN(c3nc4ccccc4nc3Cl)CC2)cc1 | 80% | 80% | 86% | 80% | 1.075 | 65% | 86% | 23.5 s
13 | inactive | inactive | 31% | 0% | – | CNc1nc(-c2ccc(CCN3CCN(c4nc5ccccc5nc4Cl)CC3)cc2)c(C)s1 | 95% | 95% | 81% | 95% | 0.8526 | 70% | 81% | 8.12 s
14 | inactive | inactive | 31% | 0% | – | Cc1nc(-c2ccc(CCN3CCN(c4nc5ccccc5nc4Cl)CC3)cc2)c(C)s1 | 60% | 80% | 51% | 60% | 0.6375 | 80% | 51% | 9.25 s
15 | inactive | inactive | – | – | – | COc1nc2ccccc2nc1N1CCN(CCc2ccc(-c3nc(N)sc3C)cc2)CC1 | 80% | 80% | 60% | 65% | 0.75 | 65% | 60% | 10.78 s
16 | inactive | inactive | 30% | 0% | – | Cc1nc(-c2ccc(CCN3CCN(c4nc5ccccc5nc4Cl)CC3)cc2)cs1 | 65% | 80% | 62% | 80% | 0.775 | 75% | 62% | 3.25 s
17 | inactive | inactive | 4% | 0% | – | Nc1nc(-c2ccc(CCN3CCN(c4nc5ccccc5nc4Cl)CC3)cc2)cs1 | 60% | 70% | 79% | 65% | 1.129 | 70% | 79% | 18.24 s
18 | inactive | inactive | 58% | 0% | – | Cc1sc(N)nc1-c1ccc(CCN2CCN(c3cnc4ccccc4n3)CC2)cc1 | 80% | 95% | 31% | 95% | 0.3263 | 60% | 31% | 2.64 s
